The source of these data is PubChem BioAssay (NCI).

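Five compound concentrations were applied to cells in 96-well plates for 48 hours; endpoints were derived by simple linear interpolation of the resulting dose-response curve. TGI denotes the concentration required for complete inhibition of growth.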

What all share (test): inhibition of tumour cell growth, NCI panel, 48 h
Test [1] has as its system NCI-H460 lung.
Test [2] deals with EKVX NSCLC.
Test [3] relates to 786-0 renal.
Test [4] deals with SF-268 CNS.
The test system of test [5] is BT-549 breast.
For test [6], the system named is U251 CNS.
Test [7] relates to M14 melanoma.
Test [8] has as its system RXF 393 renal.
The test system of test [9] is NCI-H522 lung.
Test [10] deals with SNB-19 CNS.

In the case of `CC(=O)OC(C)(C)CCC(=O)[C@](C)(O)[C@H]1[C@H](O)C[C@@]2(C)[C@@H]3CC=C4C(C)=C(OC5OC(CO)C(O)C(O)C5O)C(=O)C[C@@H]4[C@]3(C)C(=O)C[C@]12C` (some centres not stated), the TGI in test [1], in test [2], in test [3], in [4], in test [5] and in test [6] was greater than 100 µM each time. For the same compound, the TGI in test [7], in test [8], in test [9] and in test [10] was greater than 100 µM throughout.
For `O=C1CS[C@@](CC(c2ccc(Cl)cc2)c2ccc(Cl)cc2)(c2ccc(Cl)cc2)N1`, the TGI in [1] was greater than 100 µM; in test [2] it was greater than 100 µM; in [3], 71.2 µM; in test [4], greater than 100 µM; in [5], greater than 100 µM; in test [6], 63.1 µM. For the same compound, the TGI in test [7] was greater than 100 µM; in test [8] it was 17.6 µM; in [9] it was greater than 100 µM; in test [10], greater than 100 µM.
In the case of `CN(C)CCNC(=O)c1ccc(Cl)c2cc3ccccc3nc12`, the TGI came out at 3.9 µM in test [1]; 4.78 µM in test [2]; 5.61 µM in test [3]; 5.05 µM in test [4]; 7.82 µM in test [5]; 10.6 µM in [6]. The TGI in test [7] was determined as 2.62 µM; in test [8] it was 3.08 µM; in [9], 2.07 µM; in [10], 14.3 µM.
In the case of `O=C(c1ccc(O)c([N+](=O)[O-])c1)c1ccc(O)c([N+](=O)[O-])c1`, the TGI in test [1], in test [2], in [3], in [4], in test [5] and in [6] was greater than 100 µM throughout. Also, the TGI in test [7], in [8], in [9] and in [10] was greater than 100 µM throughout.
As for `O=C(O)CNC(=O)c1ccc2cc(C(=O)N3CC(CCl)c4ccc([N+](=O)[O-])cc43)[nH]c2c1` (configuration not stated), the TGI in test [1], in test [2], in test [3], in test [4], in test [5] and in test [6] was greater than 100 µM throughout. Besides, the TGI in test [7], in test [8], in test [9] and in [10] was greater than 100 µM each time.
In the case of `COC(=O)NC(Cc1ccccc1)NC(C)=O` (configuration not stated), the TGI in test [1], in test [2], in [3], in test [4], in [5] and in test [6] was greater than 100 µM each time. For the same compound, the TGI in test [7], in test [8], in test [9] and in test [10] was greater than 100 µM throughout.
With `N#CC[N+]1(Cc2ccccn2)CCCC1`, the TGI in test [1], in test [2], in [3], in test [4], in [5] and in test [6] was greater than 100 µM in each case. Besides, the TGI in [7], in test [8], in [9] and in test [10] was greater than 100 µM each time.
On to `O=[N+]([O-])c1ccc(N2N=C(c3ccc4ccccc4c3O)CC2c2ccc(Cl)cc2)c([N+](=O)[O-])c1` (configuration not stated), for which the TGI in test [1], in test [3], in test [4], in [5], in test [6] and in test [7] was greater than 100 µM in each case. Moreover, the TGI in test [8] was greater than 100 µM; in test [9], 62.4 µM.
Turning to `CCCN(CCC)C1CCc2c(ccc3cc[nH]c23)C1` (configuration not stated), the TGI in [1], in test [2], in test [3], in test [4], in test [5] and in test [6] was greater than 100 µM each time. Also, the TGI in test [7] is 32.4 µM; in test [8], greater than 100 µM; in [9], greater than 100 µM; in test [10], greater than 100 µM.
On to `CC(C)(C)OC(=O)N1[C@@H]2Cc3ccc(N)cc3[C@@]1(C)c1ccccc12`, for which the TGI is 48.8 µM in test [1]; greater than 100 µM in test [2]; 36.2 µM in test [3]; greater than 100 µM in test [4]; 43.4 µM in [5]; 32.4 µM in test [6]. Moreover, the TGI in [7] was 51.8 µM; in [8] it was 31.1 µM; in test [9], 38.4 µM; in test [10] it was greater than 100 µM.
Turning to `CC12ON(P(=O)(c3ccccc3)c3ccccc3)C(C)(c3ccccc31)c1ccccc12`, the TGI in test [1], in test [2], in test [3], in test [4], in [5] and in test [6] was greater than 100 µM each time. For the same compound, the TGI in [7], in test [8], in test [9] and in test [10] was greater than 100 µM throughout.
Regarding `Cc1cc(N(CCC#N)CCC#N)ccc1/C=C1\SC(=S)NC1=O`, the TGI in test [1], in test [2], in test [3], in test [4], in [5] and in test [6] was greater than 100 µM in each case. Further, the TGI was greater than 100 µM in test [7], 99.8 µM in test [8], greater than 100 µM in [9] and greater than 100 µM in test [10].
In the case of `COc1ccc(C2SCC(=O)N2NC(=O)C(C)Oc2ccccc2C)cc1` (configuration not stated), the TGI in test [1], in [2], in test [3], in test [4], in test [5] and in [6] was greater than 100 µM throughout. In addition, the TGI in test [7], in test [8], in test [9] and in [10] was greater than 100 µM throughout.
On to `CN(Cc1cnc2nc(N)nc(N)c2n1)c1ccc(C(=O)NC(CCC(=O)NC(CC(P(=O)(O)O)P(=O)(O)O)C(=O)O)C(=O)O)cc1` (configuration not stated), for which the TGI in test [1], in test [2], in test [3], in test [4], in [5] and in test [6] was greater than 100 µM each time. For the same compound, the TGI in test [7], in test [8], in test [9] and in test [10] was greater than 100 µM each time.
For `Nc1ccc2ccc(-c3ccc[nH]3)nc2n1`, the TGI in test [1], in test [2], in test [3], in test [4], in test [5] and in test [6] was greater than 100 µM in each case. For the same compound, the TGI in test [7], in [8], in test [9] and in [10] was greater than 100 µM throughout.
In the case of `COc1ccc2c(c1)c1nn(CCN3CCCCC3)c3ccc4c(=O)n(CCN(C)C)c(=O)n2c4c13`, the TGI in [1] is less than 0.0216 µM; in test [2] it was 0.0406 µM; in [3] it was 0.059 µM; in test [4], 0.0766 µM; in test [5], 1.08 µM; in test [6], 0.111 µM. Further, the TGI is 0.109 µM in [7], less than 0.0374 µM in [8], less than 0.0341 µM in [9] and 0.532 µM in [10].
Consider `C=Cc1nc(C#N)c(N)o1`, for which the TGI in test [1], in [2], in test [3], in test [4], in test [5] and in [6] was greater than 100 µM throughout. Also, the TGI in [7], in test [8], in [9] and in test [10] was greater than 100 µM throughout.
For `O=C(N/N=C(/COc1ccccc1Cl)N=Cc1ccncc1)c1ccncc1`, the TGI in test [1], in [2], in [3], in test [4], in [5] and in [6] was greater than 100 µM in each case. Also, the TGI in test [7], in test [8], in test [9] and in test [10] was greater than 100 µM in each case.
On to `CCOC(=O)CCC(NC(=O)Cc1ccc(Oc2nc3ccccc3nc2-c2ccccc2)cc1)C(=O)OCC` (configuration not stated), for which the TGI in [1], in test [2], in test [3], in test [4], in test [5] and in test [6] was greater than 100 µM throughout. For the same compound, the TGI in [7], in [8], in [9] and in [10] was greater than 100 µM throughout.
Turning to `COC([C@@H](OC(=O)c1ccccc1)[C@H](OC(=O)c1ccccc1)C(O)COC(=O)c1ccccc1)n1cc(C)c(=O)[nH]c1=O` (some centres not stated), the TGI is greater than 100 µM in [1]; greater than 100 µM in test [2]; 77 µM in [3]; greater than 100 µM in test [4]; 77 µM in test [5]; 58.3 µM in test [6]. In addition, the TGI in [7] was 76 µM; in test [8] it was 43.1 µM; in [9], greater than 100 µM; in test [10], greater than 100 µM.
For the compound `Nc1nc(=O)n(C2OC(CO)C(O)C2O)c2ncc(-c3ccc(-c4ccccc4)cc3)nc12` (configuration not stated), the TGI in test [1] is greater than 100 µM; in [2] it was greater than 100 µM; in [3], greater than 100 µM; in test [4], greater than 100 µM; in test [5], greater than 100 µM; in test [6], 88.9 µM. In addition, the TGI in [8], in [9] and in [10] was greater than 100 µM in each case.
For the compound `O=[N+]([O-])c1cccc(Cl)c1Oc1ccc(S(=O)(=O)/N=C(\NO)Nc2ccc(Cl)cc2)cc1`, the TGI was 29.3 µM in [1]; 26.2 µM in [2]; 25.7 µM in test [3]; 28 µM in [4]; 29.9 µM in test [5]; 27.5 µM in [6]. The TGI in [7] came out at 27.4 µM; in test [8], 30.9 µM; in [9], 20.2 µM; in test [10], 30.7 µM.
For the compound `COc1ccc2c(c1)CCN1CCCc3ccccc3C21` (configuration not stated), the TGI in [2] is greater than 100 µM; in test [3], greater than 100 µM; in test [4], greater than 100 µM; in [5] it was 86.6 µM; in test [6] it was greater than 100 µM; in [7] it was 37.9 µM. The TGI in [8], in test [9] and in test [10] was greater than 100 µM in each case.
As to `CCCCCCCCCCCCCCCCCC(=O)Nc1ccn(C2CCC(COP(=O)(O)O)O2)c(=O)n1` (configuration not stated), the TGI in [2], in [3], in [4], in test [5], in test [6] and in test [7] was greater than 100 µM in each case. The TGI in [8], in test [9] and in test [10] was greater than 100 µM in each case.
As to `COc1cc(CCN(C)C)cc(OC)c1OC`, the TGI in test [1], in test [2], in test [4], in test [5], in test [6] and in test [7] was greater than 100 µM in each case. Besides, the TGI in test [8], in [9] and in [10] was greater than 100 µM each time.
In the case of `Cc1ccc(S(=O)(=O)n2ccc(-c3ccc4ccn(S(=O)(=O)c5ccc(C)cc5)c4c3)c2)cc1`, the TGI in test [2], in test [3], in test [4], in test [5], in test [6] and in test [7] was greater than 100 µM throughout. Further, the results for the TGI in test [8], in test [9] and in test [10] were 39.3 µM, greater than 100 µM and greater than 100 µM, respectively.
Take `O=C(C(Cl)=C(N1CCCCC1)N1CCCCC1)C(Cl)Cl`: the TGI in test [1], in test [2], in test [3], in [4], in [5] and in test [7] was greater than 100 µM each time. In addition, the TGI in test [8], in [9] and in test [10] was greater than 100 µM in each case.
